Laboratory results from ChEMBL document CHEMBL1129485, “Bis(31/31') ([CYS(31), Trp(32), Nva(34)] NPY-(31-36)): a specific NPY Y-1 receptor antagonist” (J Med Chem, 1996).
Positions of bridges follow the written chain, without caps; N, C: chain ends. Non-standard residues stand in square brackets, D forms with d. Residues, ends and D or L forms follow the SMILES beside them. Chains are numbered I, II in the order given. Nva = CCC[C@H](N)C(=O)O

Key:
[1] = target: T1, Neuropeptide Y receptor type 2 (Homo sapiens, UniProt P49146); experiment: Compound was tested for the displacement of [125I]-PYY(3-36) (SK-N-BE2) from Neuropeptide Y receptor type 2 in the membranes prepared from cells; format: cell membranes
T1 sequence (P49146 whole entry): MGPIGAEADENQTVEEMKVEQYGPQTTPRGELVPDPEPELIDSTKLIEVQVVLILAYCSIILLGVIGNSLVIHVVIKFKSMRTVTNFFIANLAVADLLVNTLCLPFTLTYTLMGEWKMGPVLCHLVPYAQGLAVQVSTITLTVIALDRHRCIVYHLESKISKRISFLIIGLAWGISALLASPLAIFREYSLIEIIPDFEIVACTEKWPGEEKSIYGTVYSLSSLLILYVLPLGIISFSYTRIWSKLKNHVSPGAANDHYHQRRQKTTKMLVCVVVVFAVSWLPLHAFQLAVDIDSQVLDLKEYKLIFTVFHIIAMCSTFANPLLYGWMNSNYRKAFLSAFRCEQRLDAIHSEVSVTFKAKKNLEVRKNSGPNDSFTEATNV

[2] = target: T2, Neuropeptide Y receptor type 1 (Homo sapiens, UniProt P25929); experiment: Compound was tested for the displacement of [125I]-PYY (SK-N-MC) from Neuropeptide Y receptor type 1 in the membranes prepared from cells; format: cell membranes
T2 sequence (P25929 whole entry): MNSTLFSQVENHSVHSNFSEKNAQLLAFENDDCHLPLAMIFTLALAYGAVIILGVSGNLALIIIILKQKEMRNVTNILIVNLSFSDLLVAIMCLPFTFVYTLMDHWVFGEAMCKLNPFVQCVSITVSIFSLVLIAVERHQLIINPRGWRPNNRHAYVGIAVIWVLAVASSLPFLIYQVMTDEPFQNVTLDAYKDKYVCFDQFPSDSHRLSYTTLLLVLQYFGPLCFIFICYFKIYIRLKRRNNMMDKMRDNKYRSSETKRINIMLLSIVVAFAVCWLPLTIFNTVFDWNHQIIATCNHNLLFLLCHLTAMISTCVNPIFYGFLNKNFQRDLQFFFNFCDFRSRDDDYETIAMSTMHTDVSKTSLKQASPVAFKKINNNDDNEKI

Question: For `CCC[C@H](NC(=O)[C@H](CCCN=C(N)N)NC(=O)[C@@H](Cc1c[nH]c2ccccc12)NC(=O)[C@H](CSSC[C@H](NC(=O)[C@H](CC(C)C)NC(=O)[C@H](Cc1c[nH]c2ccccc12)NC(=O)[C@@H](N)Cc1ccc(O)cc1)C(=O)N[C@H](Cc1c[nH]c2ccccc12)C(=O)N[C@@H](CCCN=C(N)N)C(=O)N[C@@H](CCC)C(=O)N[C@@H](CCCN=C(N)N)C(=O)N[C@@H](Cc1ccc(O)cc1)C(N)=O)NC(=O)[C@H](CC(C)C)NC(=O)[C@H](Cc1c[nH]c2ccccc12)NC(=O)[C@@H](N)Cc1ccc(O)cc1)C(=O)N[C@@H](CCCN=C(N)N)C(=O)N[C@@H](Cc1ccc(O)cc1)C(N)=O`, which Ki [1] is on record?
Answer: 704 nM

Question: What about the Ki [2] of the same compound?
Answer: 143 nM

Question: For `CCC[C@H](NC(=O)[C@H](CCCN=C(N)N)NC(=O)[C@H](Cc1c[nH]c2ccccc12)NC(=O)[C@H](CSSC[C@H](NC(=O)[C@H](CC(C)C)NC(=O)[C@H](Cc1c[nH]c2ccccc12)NC(=O)[C@@H](N)Cc1ccc(O)cc1)C(=O)N[C@@H](Cc1c[nH]c2ccccc12)C(=O)N[C@@H](CCCN=C(N)N)C(=O)N[C@@H](CCC)C(=O)N[C@@H](CCCN=C(N)N)C(=O)N[C@@H](Cc1ccc(O)cc1)C(N)=O)NC(=O)[C@H](CC(C)C)NC(=O)[C@H](Cc1c[nH]c2ccccc12)NC(=O)[C@@H](N)Cc1ccc(O)cc1)C(=O)N[C@@H](CCCN=C(N)N)C(=O)N[C@@H](Cc1ccc(O)cc1)C(N)=O`, which Ki [1] is on record?
Answer: 621 nM

Question: And the Ki [2]?
Answer: 93 nM

Question: What does the source list for `CCC[C@H](NC(=O)[C@H](CCCNC(=N)N)NC(=O)[C@H](Cc1c[nH]c2ccccc12)NC(=O)[C@@H](N)CSSC[C@H](N)C(=O)N[C@@H](Cc1c[nH]c2ccccc12)C(=O)N[C@@H](CCCNC(=N)N)C(=O)N[C@@H](CCC)C(=O)N[C@@H](CCCNC(=N)N)C(=O)N[C@@H](Cc1ccc(O)cc1)C(N)=O)C(=O)N[C@@H](CCCNC(=N)N)C(=O)N[C@@H](Cc1ccc(O)cc1)C(N)=O` (I: H-CWR[Nva]RY-NH2 / II: H-CWR[Nva]RY-NH2; disulfide I:1-II:1)?
Answer: Ki [1]: > 10000 nM; Ki [2]: 46 nM

Question: `CCC[C@H](NC(=O)[C@H](CCCN=C(N)N)NC(=O)[C@@H](NC(=O)[C@H](CSSC[C@H](NC(=O)[C@H](CC(C)C)NC(=O)[C@@H](NC(=O)[C@@H](N)Cc1ccc(O)cc1)[C@@H](C)CC)C(=O)N[C@H](C(=O)N[C@@H](CCCN=C(N)N)C(=O)N[C@@H](CCC)C(=O)N[C@@H](CCCN=C(N)N)C(=O)N[C@@H](Cc1ccc(O)cc1)C(N)=O)[C@@H](C)O)NC(=O)[C@H](CC(C)C)NC(=O)[C@@H](NC(=O)[C@@H](N)Cc1ccc(O)cc1)[C@@H](C)CC)[C@@H](C)O)C(=O)N[C@@H](CCCN=C(N)N)C(=O)N[C@@H](Cc1ccc(O)cc1)C(N)=O` (I: H-YILCTR[Nva]RY-NH2 / II: H-YILCTR[Nva]RY-NH2; disulfide I:4-II:4) was tested. Which Ki [1] did it give?
Answer: 3980 nM

Question: What about the Ki [2] of the same compound?
Answer: 49 nM

Question: How did the Ki [1] turn out when `CCC[C@H](NC(=O)[C@H](CCCNC(=N)N)NC(=O)[C@H](Cc1c[nH]c2ccccc12)NC(=O)[C@H](CSSC[C@H](NC(=O)[C@H](CC(C)C)NC(=O)[C@@H](NC(=O)[C@@H](N)Cc1ccc(O)cc1)[C@@H](C)CC)C(=O)N[C@@H](Cc1c[nH]c2ccccc12)C(=O)N[C@@H](CCCNC(=N)N)C(=O)N[C@@H](CCC)C(=O)N[C@@H](CCCNC(=N)N)C(=O)N[C@@H](Cc1ccc(O)cc1)C(N)=O)NC(=O)[C@H](CC(C)C)NC(=O)[C@@H](NC(=O)[C@@H](N)Cc1ccc(O)cc1)[C@@H](C)CC)C(=O)N[C@@H](CCCNC(=N)N)C(=O)N[C@@H](Cc1ccc(O)cc1)C(N)=O` (I: H-YILCWR[Nva]RY-NH2 / II: H-YILCWR[Nva]RY-NH2; disulfide I:4-II:4) was run?
Answer: 988 nM

Question: What about the Ki [2] of the same compound?
Answer: 95 nM

Question: For `CCC[C@H](NC(=O)[C@H](CCCN=C(N)N)NC(=O)[C@@H](NC(=O)[C@H](CSSC[C@H](NC(=O)[C@H](CC(C)C)NC(=O)[C@H](CC(N)=O)NC(=O)[C@@H](NC(=O)[C@@H](N)Cc1ccc(O)cc1)[C@@H](C)CC)C(=O)N[C@H](C(=O)N[C@@H](CCCN=C(N)N)C(=O)N[C@@H](CCC)C(=O)N[C@@H](CCCN=C(N)N)C(=O)N[C@@H](Cc1ccc(O)cc1)C(N)=O)[C@@H](C)O)NC(=O)[C@H](CC(C)C)NC(=O)[C@H](CC(N)=O)NC(=O)[C@@H](NC(=O)[C@@H](N)Cc1ccc(O)cc1)[C@@H](C)CC)[C@@H](C)O)C(=O)N[C@@H](CCCN=C(N)N)C(=O)N[C@@H](Cc1ccc(O)cc1)C(N)=O` (I: H-YINLCTR[Nva]RY-NH2 / II: H-YINLCTR[Nva]RY-NH2; disulfide I:5-II:5), which Ki [1] is on record?
Answer: 2080 nM

Question: And the Ki [2]?
Answer: 36 nM

Question: With `CCC[C@H](NC(=O)[C@H](CCCN=C(N)N)NC(=O)[C@H](Cc1c[nH]c2ccccc12)NC(=O)[C@H](CSSC[C@H](NC(=O)[C@H](CC(C)C)NC(=O)[C@H](CC(N)=O)NC(=O)[C@@H](NC(=O)[C@@H](N)Cc1ccc(O)cc1)[C@@H](C)CC)C(=O)N[C@@H](Cc1c[nH]c2ccccc12)C(=O)N[C@@H](CCCN=C(N)N)C(=O)N[C@@H](CCC)C(=O)N[C@@H](CCCN=C(N)N)C(=O)N[C@@H](Cc1ccc(O)cc1)C(N)=O)NC(=O)[C@H](CC(C)C)NC(=O)[C@H](CC(N)=O)NC(=O)[C@@H](NC(=O)[C@@H](N)Cc1ccc(O)cc1)[C@@H](C)CC)C(=O)N[C@@H](CCCN=C(N)N)C(=O)N[C@@H](Cc1ccc(O)cc1)C(N)=O` (I: H-YINLCWR[Nva]RY-NH2 / II: H-YINLCWR[Nva]RY-NH2; disulfide I:5-II:5) as the compound, how does the Ki [1] read?
Answer: 3410 nM

Question: And the Ki [2]?
Answer: 44 nM
